Here are results for 44 compounds from ChEMBL document CHEMBL4834430, “Design and Structure-Activity Relationships of Isothiocyanates as Potent and Selective N-Acylethanolamine-Hydrolyzing Acid Amidase Inhibitors” (J Med Chem, 2021).

Activity calls are given as the source filed them. No cut-off for these calls is given here.

One may read the IC50 as the midpoint of a concentration-inhibition curve. Low values mean inhibition by little substance, high ones a need for much substance. By half-life is commonly meant the time in which the quantity being followed falls by half.

The nature of data set [1]: Drug concentration in plasma of CD-1 mouse at 8 mg/kg, po administered as single cassette dose measured after 60 mins. It counts as ADME, organism-based.
In data set [2] the target is T1, N-acylethanolamine-hydrolyzing acid amidase (Homo sapiens, UniProt Q02083).
T1 sequence (Q02083 whole entry): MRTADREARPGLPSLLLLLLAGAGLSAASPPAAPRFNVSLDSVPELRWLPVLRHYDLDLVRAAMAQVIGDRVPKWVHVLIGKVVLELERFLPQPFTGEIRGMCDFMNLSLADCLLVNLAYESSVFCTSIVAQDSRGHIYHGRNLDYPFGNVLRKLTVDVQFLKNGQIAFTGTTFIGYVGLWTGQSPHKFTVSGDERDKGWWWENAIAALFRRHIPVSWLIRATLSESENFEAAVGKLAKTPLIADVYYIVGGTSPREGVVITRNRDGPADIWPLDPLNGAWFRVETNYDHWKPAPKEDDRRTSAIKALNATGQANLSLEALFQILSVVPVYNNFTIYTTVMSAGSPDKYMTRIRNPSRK
Nature of the data set: Inhibition of human NAAA using N-(4-methyl coumarin)-palmitamide as fluorogenic substrate preincubated for 90 mins followed by substrate addition by fluorescence assay.

Data set [3] has as its target T2, N-acylethanolamine-hydrolyzing acid amidase (Homo sapiens) (UniProt Q02083).
T2 sequence (whole entry): T1 sequence (Q02083 whole entry)
Briefly: Covalent inhibition of human NAAA assessed as ratio of Kinact/Ki.

Data set [4] can be described thus: Drug concentration in brain of CD-1 mouse at 2 mg/kg, iv administered as single cassette dose measured after 15 mins. It counts as ADME, organism-based. Conditions: read-out: Ct.
Data set [5] in a line: Drug concentration in plasma of CD-1 mouse at 8 mg/kg, po administered as single cassette dose measured after 30 mins. In kind it is ADME, organism-based.
A short description of data set [6]: Drug concentration in plasma of CD-1 mouse at 2 mg/kg, iv administered as single cassette dose measured after 15 mins. It counts as ADME, organism-based.
The target of data set [7] is T3, Cathepsin K (Homo sapiens) (UniProt P43235).
T3 sequence (whole entry): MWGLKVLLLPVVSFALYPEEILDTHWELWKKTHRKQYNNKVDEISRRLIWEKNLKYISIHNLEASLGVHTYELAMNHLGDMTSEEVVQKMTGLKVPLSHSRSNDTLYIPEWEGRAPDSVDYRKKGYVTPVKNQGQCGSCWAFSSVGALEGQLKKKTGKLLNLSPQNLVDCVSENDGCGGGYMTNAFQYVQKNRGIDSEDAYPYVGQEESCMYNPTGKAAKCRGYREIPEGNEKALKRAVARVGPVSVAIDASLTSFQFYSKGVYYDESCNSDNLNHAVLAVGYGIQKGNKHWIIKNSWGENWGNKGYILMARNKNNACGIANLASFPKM
Nature of the data set: Inhibition of recombinant human Cathepsin K at 1 uM using Z-Phe-Arg-AMC as fluorogenic substrate preincubated for 120 mins followed by substrate addition by fluorescence assay.

Data set [8] can be described thus: Half life in human liver microsomes at 1 uM in presence of NADPH by LC-MS/MS analysis. It counts as ADME, Microsome. On the technique in general: Liver microsomes are vesicles of endoplasmic reticulum, rich in cytochrome P450 enzymes.
The nature of data set [9]: Half life in rat liver microsomes at 1 uM in presence of NADPH by LC-MS/MS analysis. It counts as ADME, Microsome.
The nature of data set [10]: Half life in mouse liver microsomes at 1 uM in presence of NADPH by LC-MS/MS analysis. In kind it is ADME, Microsome.

In the case of `Fc1cc(-c2ccc3c(c2)OCCO3)ccc1CO[C@H]1C[C@@H](N=C=S)C1`, the concentration at 1 h in [1] turned out to be 7 ng/mL. In [2], this compound showed an IC50 of 11.8 nM. Moreover, the Ratio in data set [3] is 2.43 10^5/M/s. The concentration at 0.25 h amounted to 12 ng/g in data set [4] and 168 ng/mL in [6]. For the same compound, the concentration at 0.5 h in data set [5] amounted to 12 ng/mL.
`COc1ccc(-c2ccc(CO[C@]3(C)C[C@H](N=C=S)C3)c(F)c2)cc1F` yielded an IC50 in data set [2] of 480 nM.
`COc1ccc(-c2ccc(CO[C@H]3C[C@@H](N=C=S)C3)c(F)c2)cc1OC` gave an IC50 in data set [2] of 58.9 nM. The Ratio in data set [3] was 7.97 10^5/M/s.
In turn, `Cc1ccc(-c2ccc(CO[C@H]3C[C@@H](N=C=S)C3)cc2)cc1` showed an IC50 in [2] of 26 nM. Further, the Ratio in data set [3] was 2.04 10^6/M/s.
Consider `COc1ccc(-c2ccc(CO[C@H]3CC[C@@H](N=C=S)C3)nc2)cc1F` (single isomer, unassigned), for which, in [2], inhibition was half-maximal at 1450 nM (IC50).
The same measure, in the same setting: the value for `Fc1cc(-c2cccc(OCc3ccccc3)c2)ccc1CO[C@H]1C[C@@H](N=C=S)C1` was 99.8 nM.
On to `COc1ccc(-c2ccc(S(=O)(=O)N[C@H]3C[C@@H](N=C=S)C3)cc2)cc1`, for which, in [1], the concentration at 1 h is 20 ng/mL. In data set [2], this compound showed an IC50 of 2.3 nM. For the same compound, the values for the concentration at 0.25 h in data set [4] and in [6] were 1090 ng/g and 164 ng/mL, respectively. In data set [5], this compound registered a concentration at 0.5 h of 20 ng/mL. The inhibition entry in data set [7] was “inactive”.
Compound `COc1ccc(-c2cnc(C(=O)N[C@H]3C[C@@H](N=C=S)C3)cn2)cc1` yielded a concentration for half-maximal inhibition (IC50) in data set [2] of 853 nM.
`COc1ccc(C23CC(C(=O)N[C@H]4C[C@@H](N=C=S)C4)(C2)C3)cc1` displayed an IC50 in data set [2] of 128 nM.
`CCOc1ccc(-c2ccc(CO[C@H]3C[C@@H](N=C=S)C3)c(F)c2)cc1F` registered an IC50 in data set [2] of 69.2 nM.
On the same count and under the same terms, in the case of `COc1ccc(-c2ccc3c(c2)CN([C@H]2C[C@@H](N=C=S)C2)C3)cc1F` it was 74.2 nM.
In turn, `COc1cccc(-c2ccc(CO[C@H]3C[C@@H](N=C=S)C3)cc2)c1` yielded an IC50 in data set [2] of 22 nM. Moreover, the Ratio in data set [3] was 2.24 10^6/M/s.
On to `COc1ccc(N2CCC(C(=O)N[C@H]3C[C@@H](N=C=S)C3)CC2)cc1`, for which the IC50 in [2] worked out at 137 nM.
In data set [1], `COc1ccc(-c2ccc(C(=O)N[C@H]3C[C@@H](N=C=S)C3)nc2)cc1` showed a concentration at 1 h of 8 ng/mL. Also, the IC50 in [2] stood at 7.6 nM. In addition, the concentration at 0.25 h in [4] was found to be 809 ng/g; in [6], 264 ng/mL. This compound came in with a concentration at 0.5 h in [5] of 12 ng/mL. The inhibition result in data set [7] was “inactive”.
With `COc1ccc(-c2ccc(COC3C[C@@H](N=C=S)C3(C)C)nc2)cc1F` (single isomer, unassigned), the IC50 in [2] was found to be 246 nM.
Still for that read-out and setting: in the case of `COc1ccc(-c2ccc(CO[C@H]3C[C@@H](N=C=S)C3)nc2)nc1` it was 30.4 nM; in that of `Cn1cc(-c2ccc(CO[C@H]3C[C@@H](N=C=S)C3)c(F)c2)cn1`, 517 nM.
For the compound `COc1ccc(CCCC(=O)N[C@H]2C[C@@H](N=C=S)C2)cc1`, the half-maximal inhibitory concentration (IC50) in data set [2] came out at 62 nM.
In the case of `COc1ccc(-c2ccc(C(C)O[C@H]3C[C@@H](N=C=S)C3)c(F)c2)cc1F` (stereo partly specified), the IC50 in data set [2] was 14.6 nM.
`COc1ccc(-c2ccc(CO[C@H]3CC[C@@H](N=C=S)CC3)cc2)cc1F` yielded an IC50 in [2] of 386 nM.
Same read-out and setting: in the case of `Cc1ccc(-c2ccc(CO[C@H]3C[C@H](N=C=S)C3)cc2)cc1` it was 580 nM; in that of `COc1ccc(-c2ccc(O[C@H]3C[C@@H](N=C=S)C3)cc2)cc1F`, 35.9 nM.
Still for that read-out and setting: the value for `COc1ccc(Oc2ccc(C(=O)N[C@H]3C[C@@H](N=C=S)C3)cc2)cc1` was 1420 nM; that for `COc1ccc(CCCCCC(=O)N[C@H]2C[C@@H](N=C=S)C2)cc1` was 22.5 nM.
`COc1ccc(-c2cc(CO[C@H]3C[C@@H](N=C=S)C3)on2)cc1`: the IC50 in [2] was 43.6 nM.
Consider `COc1ccc(C2CC(C(=O)N[C@H]3C[C@@H](N=C=S)C3)C2)cc1` (stereo partly specified), for which the IC50 in [2] came out at 55.9 nM.
For the compound `CN(Cc1ccc(-c2ccccc2)cc1)[C@H]1C[C@@H](N=C=S)C1`, the half-life at 1 µM in data set [8] stood at 14.7 min; in data set [9], 4.4 min; in data set [10], 5.1 min. In data set [2], this compound gave a concentration for half-maximal inhibition (IC50) of 1920 nM.
`COc1ccc(-c2noc(CO[C@H]3C[C@@H](N=C=S)C3)n2)cc1` showed an IC50 in data set [2] of 493 nM.
Turning to `Fc1cc(-c2cccc(C(F)(F)F)c2)ccc1CO[C@H]1C[C@@H](N=C=S)C1`, the half-life at 1 µM in data set [8] turned out to be 16 min; in [9], 17.9 min; in [10], 13.2 min. In data set [1], this compound gave a concentration at 1 h of 331 ng/mL. The IC50 in data set [2] is 67.2 nM. In addition, the concentration at 0.25 h in data set [4] came out at 810 ng/g; in data set [6], 1010 ng/mL. Moreover, in data set [5], the concentration at 0.5 h turned out to be 19 ng/mL.
Turning to `Fc1cc(-c2ccc3c(c2)OCO3)ccc1CO[C@H]1C[C@@H](N=C=S)C1`, the half-life at 1 µM in [8] was 3.3 min; in data set [9] it was 6.5 min; in [10], 2.4 min. The concentration at 1 h in [1] amounted to 13 ng/mL. This compound displayed an IC50 in [2] of 8.8 nM. The Ratio in data set [3] was 3.44 10^5/M/s. Further, the concentration at 0.25 h in data set [4] came out at 14 ng/g; in data set [6] it was 244 ng/mL. Also, the concentration at 0.5 h in data set [5] stood at 31 ng/mL.
Regarding `S=C=NC1CN(CCCCCCc2ccccc2)C1`, it took 8.3 nM to reach half-maximal inhibition in data set [2] (IC50).
Still for that read-out and setting: in the case of `COc1ccc(-c2ccc3c(c2)CCN([C@H]2C[C@@H](N=C=S)C2)C3)cc1F` it was 89 nM; in that of `Fc1cc(-c2ccc3c(c2)OCC3)ccc1CO[C@H]1C[C@@H](N=C=S)C1`, 59.3 nM.
`FC1(F)Oc2ccc(-c3ccc(CO[C@H]4C[C@@H](N=C=S)C4)nc3)cc2O1` displayed an IC50 in data set [2] of 171 nM.
Turning to `S=C=N[C@H]1C[C@@H](OCc2ccc(-c3ccccc3)cc2)C1`, the figures for the half-life at 1 µM in data set [8], in data set [9] and in [10] were 16.1 min, 19.6 min and 14.4 min, respectively. This compound returned an IC50 in data set [2] of 93 nM. The Ratio in data set [3] is 7.23 10^6/M/s.
On to `COc1ccc(-c2ccc3c(c2)CN([C@H]2C[C@@H](N=C=S)C2)CC3)cc1F`, for which the IC50 in data set [2] was found to be 356 nM.
On the same count and under the same terms, in the case of `COc1ccc(-c2ccc(CN3CC(N=C=S)C3)c(F)c2)cc1F` it was 176 nM.
Regarding `COc1ccc(-c2ccc(OC(=O)N[C@H]3C[C@@H](N=C=S)C3)cc2)cc1`, the half-life at 1 µM is 6.4 min in [8], 5 min in data set [9] and 6.2 min in data set [10]. The same compound yielded an IC50 in data set [2] of 7 nM.
As for `COc1ccc(-c2cc(C(=O)N[C@H]3C[C@@H](N=C=S)C3)on2)cc1`, it took 91.5 nM to reach half-maximal inhibition in [2] (IC50).
With `COc1ccc(-c2ccc(S(=O)(=O)N[C@H]3C[C@@H](N=C=S)C3)cc2)cc1F`, the half-life at 1 µM in [8] turned out to be 8 min; in data set [9], 6 min; in data set [10], 6 min. The compound also gave an IC50 in data set [2] of 3.2 nM. Also, the inhibition result in data set [7] was “inactive”.
`COc1cc(-c2ccc(CO[C@H]3C[C@@H](N=C=S)C3)c(F)c2)ccc1F` came in with an IC50 in [2] of 155 nM.
The same measure, in the same setting: in the case of `COc1cnc(-c2ccc(CO[C@H]3C[C@@H](N=C=S)C3)[n+]([O-])c2)cc1F` it was 23.5 nM; in that of `COc1ccc(-c2ccc(C(=O)N[C@]34C[C@](N=C=S)(C3)C4)c(F)c2)cc1`, 1230 nM.
Same read-out and setting: in the case of `S=C=N[C@H]1C[C@H](OCc2ccc(-c3ccccc3)cc2)C1` it was 4300 nM.
